In ChEMBL document CHEMBL4507296 (2021):
Calls of active or inactive are those of the source. The calls are words filed in the database; no cut-off is given here.

Assays:
[1] = biological target: Transient receptor potential cation channel subfamily M member 8 (Homo sapiens, UniProt Q7Z2W7); test: Cold activation
[2] = test system: Tyrosine-protein kinase ABL1 (Homo sapiens), P00519 [F317I]; conditions: Compound concentration 1000.0 nM
[3] = biological target: Activin receptor type-1 (Homo sapiens) (UniProt Q04771); conditions: Compound concentration 1000.0 nM
[4] = biological target: Activin receptor type-1-like (Homo sapiens) (UniProt P37023); conditions: Compound concentration 1000.0 nM
Sequence of Activin receptor type-1-like (Homo sapiens) (P37023 whole entry): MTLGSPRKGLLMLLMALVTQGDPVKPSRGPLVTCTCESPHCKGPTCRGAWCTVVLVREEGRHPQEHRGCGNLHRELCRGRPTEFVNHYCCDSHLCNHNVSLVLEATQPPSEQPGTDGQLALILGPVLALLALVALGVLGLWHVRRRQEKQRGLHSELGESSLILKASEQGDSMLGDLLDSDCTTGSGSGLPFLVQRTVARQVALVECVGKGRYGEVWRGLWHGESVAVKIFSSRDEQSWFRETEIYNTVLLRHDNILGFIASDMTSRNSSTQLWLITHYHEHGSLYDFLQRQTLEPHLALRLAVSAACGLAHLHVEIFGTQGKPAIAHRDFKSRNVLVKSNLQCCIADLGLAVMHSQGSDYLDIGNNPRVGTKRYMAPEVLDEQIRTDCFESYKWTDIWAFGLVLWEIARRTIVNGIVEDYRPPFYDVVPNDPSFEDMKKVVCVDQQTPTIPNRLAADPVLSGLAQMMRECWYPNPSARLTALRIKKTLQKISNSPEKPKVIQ

[5] = biological target: Cyclin-dependent kinase 19 (Homo sapiens) (UniProt Q9BWU1); conditions: Compound concentration 1000.0 nM
Sequence of Cyclin-dependent kinase 19 (Homo sapiens) (Q9BWU1 whole entry): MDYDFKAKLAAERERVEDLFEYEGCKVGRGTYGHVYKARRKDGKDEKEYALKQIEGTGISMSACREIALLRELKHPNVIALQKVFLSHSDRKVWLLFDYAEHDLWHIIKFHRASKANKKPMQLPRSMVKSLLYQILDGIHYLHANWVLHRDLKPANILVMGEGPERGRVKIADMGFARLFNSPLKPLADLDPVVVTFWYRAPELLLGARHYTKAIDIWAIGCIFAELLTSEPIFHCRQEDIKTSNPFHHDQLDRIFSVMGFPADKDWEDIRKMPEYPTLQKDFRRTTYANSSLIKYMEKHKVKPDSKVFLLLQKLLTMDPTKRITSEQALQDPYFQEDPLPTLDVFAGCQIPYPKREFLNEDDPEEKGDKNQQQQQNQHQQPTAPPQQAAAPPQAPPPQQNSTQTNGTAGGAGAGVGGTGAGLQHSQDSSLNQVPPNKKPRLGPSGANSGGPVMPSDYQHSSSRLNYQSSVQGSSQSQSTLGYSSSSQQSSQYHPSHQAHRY

[6] = biological target: Cyclin-dependent kinase-like 2 (Homo sapiens) (UniProt Q92772); conditions: Compound concentration 1000.0 nM
[7] = biological target: Cyclin-dependent kinase-like 3 (Homo sapiens) (UniProt Q8IVW4); conditions: Compound concentration 1000.0 nM
[8] = biological target: Cyclin-dependent kinase-like 5 (Homo sapiens) (UniProt O76039); conditions: Compound concentration 1000.0 nM
[9] = test system: Epidermal growth factor receptor (Homo sapiens), P00533 [UNDEFINED MUTATION]; conditions: Compound concentration 1000.0 nM
[10] = test system: Epidermal growth factor receptor (Homo sapiens), P00533 [G719C]; conditions: Compound concentration 1000.0 nM
[11] = test system: Epidermal growth factor receptor (Homo sapiens), P00533 [UNDEFINED MUTATION]; conditions: Compound concentration 1000.0 nM; remark: listed apart in the source
[12] = test system: Epidermal growth factor receptor (Homo sapiens), P00533 [UNDEFINED MUTATION]; conditions: Compound concentration 1000.0 nM; remark: listed apart in the source
[13] = biological target: Ephrin type-A receptor 3 (Homo sapiens) (UniProt P29320); conditions: Compound concentration 1000.0 nM
Sequence of Ephrin type-A receptor 3 (Homo sapiens) (P29320 whole entry): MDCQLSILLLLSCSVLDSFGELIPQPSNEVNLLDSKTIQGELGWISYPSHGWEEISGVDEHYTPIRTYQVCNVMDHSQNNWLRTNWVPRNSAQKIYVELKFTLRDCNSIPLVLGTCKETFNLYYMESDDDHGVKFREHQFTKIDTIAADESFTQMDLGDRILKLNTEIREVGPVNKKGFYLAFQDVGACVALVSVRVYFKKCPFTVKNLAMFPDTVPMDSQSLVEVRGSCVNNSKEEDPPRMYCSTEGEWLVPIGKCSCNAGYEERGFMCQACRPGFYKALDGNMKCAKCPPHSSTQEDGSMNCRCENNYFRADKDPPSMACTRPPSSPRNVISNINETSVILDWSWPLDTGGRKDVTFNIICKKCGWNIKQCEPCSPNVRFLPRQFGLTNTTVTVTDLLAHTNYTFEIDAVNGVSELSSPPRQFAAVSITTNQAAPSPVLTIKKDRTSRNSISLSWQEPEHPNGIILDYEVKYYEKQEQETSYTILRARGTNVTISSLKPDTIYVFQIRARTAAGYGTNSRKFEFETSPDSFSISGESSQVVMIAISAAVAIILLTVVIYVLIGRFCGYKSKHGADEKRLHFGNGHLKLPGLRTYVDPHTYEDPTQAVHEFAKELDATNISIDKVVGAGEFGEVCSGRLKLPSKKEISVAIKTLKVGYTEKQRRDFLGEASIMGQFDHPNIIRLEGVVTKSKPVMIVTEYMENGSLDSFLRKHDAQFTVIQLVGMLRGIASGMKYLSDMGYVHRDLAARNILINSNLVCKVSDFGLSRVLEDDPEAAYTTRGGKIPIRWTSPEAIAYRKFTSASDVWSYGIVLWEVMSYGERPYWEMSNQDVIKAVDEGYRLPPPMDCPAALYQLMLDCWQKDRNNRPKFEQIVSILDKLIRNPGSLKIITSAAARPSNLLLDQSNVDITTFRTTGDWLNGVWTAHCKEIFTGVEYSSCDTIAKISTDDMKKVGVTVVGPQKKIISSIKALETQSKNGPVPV

[14] = biological target: Ephrin type-B receptor 1 (Homo sapiens) (UniProt P54762); conditions: Compound concentration 1000.0 nM
[15] = biological target: Ephrin type-B receptor 6 (Homo sapiens) (UniProt O15197); conditions: Compound concentration 1000.0 nM
[16] = biological target: Interleukin-1 receptor-associated kinase 1 (Homo sapiens) (UniProt P51617); conditions: Compound concentration 1000.0 nM
Sequence of Interleukin-1 receptor-associated kinase 1 (Homo sapiens) (P51617 whole entry, looked up): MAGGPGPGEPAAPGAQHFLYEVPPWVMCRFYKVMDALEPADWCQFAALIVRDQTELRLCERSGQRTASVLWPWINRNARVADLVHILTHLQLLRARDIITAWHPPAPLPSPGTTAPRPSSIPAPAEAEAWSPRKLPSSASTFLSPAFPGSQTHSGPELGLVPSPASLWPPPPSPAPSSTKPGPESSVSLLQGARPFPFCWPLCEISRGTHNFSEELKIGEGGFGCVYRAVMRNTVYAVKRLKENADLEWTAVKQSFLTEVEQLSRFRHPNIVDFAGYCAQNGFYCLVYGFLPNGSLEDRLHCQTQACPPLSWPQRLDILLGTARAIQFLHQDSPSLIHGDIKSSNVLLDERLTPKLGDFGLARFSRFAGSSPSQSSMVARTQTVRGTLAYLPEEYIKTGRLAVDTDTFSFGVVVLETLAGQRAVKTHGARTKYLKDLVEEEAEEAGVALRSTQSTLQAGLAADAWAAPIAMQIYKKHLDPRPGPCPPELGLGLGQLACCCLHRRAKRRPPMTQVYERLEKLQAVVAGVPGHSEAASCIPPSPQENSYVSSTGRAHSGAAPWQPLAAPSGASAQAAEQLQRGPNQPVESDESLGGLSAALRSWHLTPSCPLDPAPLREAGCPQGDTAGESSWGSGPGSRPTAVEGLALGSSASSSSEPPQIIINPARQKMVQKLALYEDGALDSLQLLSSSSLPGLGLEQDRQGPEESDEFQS

[17] = biological target: Tyrosine-protein kinase ITK/TSK (Homo sapiens) (UniProt Q08881); conditions: Compound concentration 1000.0 nM
[18] = biological target: Mitogen-activated protein kinase 10 (Homo sapiens) (UniProt P53779); conditions: Compound concentration 1000.0 nM
Sequence of Mitogen-activated protein kinase 10 (Homo sapiens) (P53779 whole entry): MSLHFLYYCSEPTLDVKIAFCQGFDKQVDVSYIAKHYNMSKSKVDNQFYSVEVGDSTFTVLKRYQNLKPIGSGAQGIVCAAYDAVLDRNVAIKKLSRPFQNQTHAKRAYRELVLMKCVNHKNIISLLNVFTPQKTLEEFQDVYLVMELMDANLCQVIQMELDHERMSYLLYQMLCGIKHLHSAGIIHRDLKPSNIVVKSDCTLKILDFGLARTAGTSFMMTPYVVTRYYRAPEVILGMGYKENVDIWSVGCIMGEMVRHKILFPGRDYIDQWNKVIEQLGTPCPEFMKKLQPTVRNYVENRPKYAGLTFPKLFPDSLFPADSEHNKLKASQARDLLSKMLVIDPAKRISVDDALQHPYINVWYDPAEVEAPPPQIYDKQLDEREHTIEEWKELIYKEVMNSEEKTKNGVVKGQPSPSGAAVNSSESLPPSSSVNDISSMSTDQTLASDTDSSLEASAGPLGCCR

[19] = test system: Mast/stem cell growth factor receptor Kit (Homo sapiens), P10721 [V559D,V654A]; conditions: Compound concentration 1000.0 nM
[20] = test system: Leucine-rich repeat serine/threonine-protein kinase 2 (Homo sapiens), Q5S007 [G2019S]; conditions: Compound concentration 1000.0 nM
[21] = biological target: Mitogen-activated protein kinase kinase kinase kinase 4 (Homo sapiens) (UniProt O95819); conditions: Compound concentration 1000.0 nM
[22] = biological target: Myosin light chain kinase (Homo sapiens) (UniProt Q32MK0); conditions: Compound concentration 1000.0 nM
[23] = biological target: Mitogen-activated protein kinase kinase kinase 11 (Homo sapiens) (UniProt Q16584); conditions: Compound concentration 1000.0 nM
[24] = biological target: Serine/threonine-protein kinase 38-like (Homo sapiens) (UniProt Q9Y2H1); conditions: Compound concentration 1000.0 nM
[25] = biological target: Serine/threonine-protein kinase Nek11 (Homo sapiens) (UniProt Q8NG66); conditions: Compound concentration 1000.0 nM
[26] = biological target: Mitogen-activated protein kinase 14 (Homo sapiens) (UniProt Q16539); conditions: Compound concentration 1000.0 nM
[27] = biological target: Cyclin-dependent kinase 15 (Homo sapiens) (UniProt Q96Q40); conditions: Compound concentration 1000.0 nM
[28] = biological target: Cyclin-dependent kinase 14 (Homo sapiens) (UniProt O94921); conditions: Compound concentration 1000.0 nM
Sequence of Cyclin-dependent kinase 14 (Homo sapiens) (O94921 whole entry): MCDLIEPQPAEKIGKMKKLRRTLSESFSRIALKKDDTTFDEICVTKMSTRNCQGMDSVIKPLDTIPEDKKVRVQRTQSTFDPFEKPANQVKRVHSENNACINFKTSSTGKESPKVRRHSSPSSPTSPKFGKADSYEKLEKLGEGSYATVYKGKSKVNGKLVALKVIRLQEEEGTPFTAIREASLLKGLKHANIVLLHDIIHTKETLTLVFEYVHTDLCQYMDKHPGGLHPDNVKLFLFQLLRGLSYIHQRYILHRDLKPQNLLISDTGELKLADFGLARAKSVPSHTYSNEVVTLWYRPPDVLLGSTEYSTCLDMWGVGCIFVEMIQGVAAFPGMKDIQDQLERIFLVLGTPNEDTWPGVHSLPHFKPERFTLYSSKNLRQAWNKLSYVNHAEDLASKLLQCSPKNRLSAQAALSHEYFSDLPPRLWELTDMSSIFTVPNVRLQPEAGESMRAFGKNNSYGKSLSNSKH

[29] = biological target: Serine/threonine-protein kinase N1 (Homo sapiens) (UniProt Q16512); conditions: Compound concentration 1000.0 nM
[30] = biological target: Serine/threonine-protein kinase N2 (Homo sapiens) (UniProt Q16513); conditions: Compound concentration 1000.0 nM
[31] = biological target: Serine/threonine-protein kinase PknB (Mycobacterium tuberculosis) (UniProt P9WI81); conditions: Compound concentration 1000.0 nM
[32] = biological target: Protein kinase C theta type (Homo sapiens) (UniProt Q04759); conditions: Compound concentration 1000.0 nM
[33] = biological target: Receptor-interacting serine/threonine-protein kinase 2 (Homo sapiens) (UniProt O43353); conditions: Compound concentration 1000.0 nM
[34] = biological target: NT-3 growth factor receptor (Homo sapiens) (UniProt Q16288); conditions: Compound concentration 1000.0 nM
Sequence of NT-3 growth factor receptor (Homo sapiens) (Q16288 32-839 limits assumed): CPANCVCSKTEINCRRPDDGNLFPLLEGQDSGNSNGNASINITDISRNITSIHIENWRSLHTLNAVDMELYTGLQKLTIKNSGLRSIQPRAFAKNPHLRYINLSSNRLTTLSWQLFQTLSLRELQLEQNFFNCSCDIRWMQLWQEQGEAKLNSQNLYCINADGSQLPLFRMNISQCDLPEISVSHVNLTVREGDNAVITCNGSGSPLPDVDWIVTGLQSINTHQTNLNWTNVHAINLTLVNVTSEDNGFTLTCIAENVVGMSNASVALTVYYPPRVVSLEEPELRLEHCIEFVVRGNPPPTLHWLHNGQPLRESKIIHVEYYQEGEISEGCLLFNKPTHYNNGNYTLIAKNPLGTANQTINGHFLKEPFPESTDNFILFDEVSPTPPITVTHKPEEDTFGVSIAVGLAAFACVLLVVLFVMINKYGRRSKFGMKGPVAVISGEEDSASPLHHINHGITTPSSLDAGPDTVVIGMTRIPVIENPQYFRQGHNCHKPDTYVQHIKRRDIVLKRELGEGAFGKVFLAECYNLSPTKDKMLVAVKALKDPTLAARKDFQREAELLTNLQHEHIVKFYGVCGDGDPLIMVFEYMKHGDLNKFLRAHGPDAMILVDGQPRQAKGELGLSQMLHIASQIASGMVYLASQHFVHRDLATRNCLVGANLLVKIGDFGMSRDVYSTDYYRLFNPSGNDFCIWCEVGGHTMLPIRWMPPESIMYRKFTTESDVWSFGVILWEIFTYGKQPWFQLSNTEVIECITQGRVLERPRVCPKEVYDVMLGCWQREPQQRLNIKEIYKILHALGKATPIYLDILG

[35] = biological target: Serine/threonine-protein kinase 32A (Homo sapiens) (UniProt Q8WU08); conditions: Compound concentration 1000.0 nM
Sequence of Serine/threonine-protein kinase 32A (Homo sapiens) (Q8WU08 whole entry): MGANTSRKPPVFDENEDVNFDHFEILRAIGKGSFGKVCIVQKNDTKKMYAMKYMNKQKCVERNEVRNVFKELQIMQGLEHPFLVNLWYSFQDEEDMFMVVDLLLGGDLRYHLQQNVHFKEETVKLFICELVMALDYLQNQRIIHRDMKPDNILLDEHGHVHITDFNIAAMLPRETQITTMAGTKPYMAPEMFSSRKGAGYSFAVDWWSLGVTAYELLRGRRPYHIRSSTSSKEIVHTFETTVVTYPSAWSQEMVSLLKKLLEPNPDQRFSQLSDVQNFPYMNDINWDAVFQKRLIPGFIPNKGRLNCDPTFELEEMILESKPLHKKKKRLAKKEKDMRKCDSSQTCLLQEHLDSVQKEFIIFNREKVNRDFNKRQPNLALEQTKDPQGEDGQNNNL

[36] = biological target: Tyrosine-protein kinase ZAP-70 (Homo sapiens) (UniProt P43403); conditions: Compound concentration 1000.0 nM
[37] = biological target: GABA-A receptor; anion channel (Rattus norvegicus) (UniProt O09028+P15431+P18506+P18508+P19969+P20236+P23574+P23576+P28471+P28473+P30191+P62813+P63079+P63138+Q91ZM7+Q9ES14); conditions: Compound concentration 10.0 uM
[38] = biological target: T1, Alpha-2B adrenergic receptor (Homo sapiens) (UniProt P18089); conditions: Compound concentration 10.0 uM
T1 sequence (whole entry): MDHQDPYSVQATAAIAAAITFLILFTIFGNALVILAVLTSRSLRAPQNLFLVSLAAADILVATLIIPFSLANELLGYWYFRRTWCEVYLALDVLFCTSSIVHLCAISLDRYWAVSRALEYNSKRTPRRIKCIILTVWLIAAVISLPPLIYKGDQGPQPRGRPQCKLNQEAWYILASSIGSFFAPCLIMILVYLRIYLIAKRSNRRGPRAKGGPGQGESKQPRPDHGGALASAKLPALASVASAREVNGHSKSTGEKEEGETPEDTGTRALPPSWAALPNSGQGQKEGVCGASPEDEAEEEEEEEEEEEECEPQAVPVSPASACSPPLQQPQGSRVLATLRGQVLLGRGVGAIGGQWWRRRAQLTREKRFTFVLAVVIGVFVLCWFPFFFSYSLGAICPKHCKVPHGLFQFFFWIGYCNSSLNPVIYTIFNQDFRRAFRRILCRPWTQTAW

C[C@H](c1ccc(F)cc1)N(Cc1cccc(C(=O)O)c1)C(=O)c1cnc2ccccc2c1 [PF-05105679]
IC50 [1]: 480 nM (active)
residual activity [2]: 72%
residual activity [3]: 100%
residual activity [4]: 100%
residual activity [5]: 100%
residual activity [6]: 100%
residual activity [7]: 64%
residual activity [8]: 100%
residual activity [9]: 100%
residual activity [10]: 90%
residual activity [11]: 100%
residual activity [12]: 100%
residual activity [13]: 85%
residual activity [14]: 83%
residual activity [15]: 88%
residual activity [16]: 89%
residual activity [17]: 84%
residual activity [18]: 82%
residual activity [19]: 100%
residual activity [20]: 100%
residual activity [21]: 96%
residual activity [22]: 100%
residual activity [23]: 100%
residual activity [24]: 100%
residual activity [25]: 82%
residual activity [26]: 0%
residual activity [27]: 100%
residual activity [28]: 100%
residual activity [29]: 100%
residual activity [30]: 86%
residual activity [31]: 94%
residual activity [32]: 100%
residual activity [33]: 82%
residual activity [34]: 92%
residual activity [35]: 100%
residual activity [36]: 96%
inhibition [37]: 28.4%
inhibition [38]: 20.2%
